Values of other authors as cited in patent US6608222B2, “Bioactive conjugated linoleic acid glycerides and method of use” (Alpha Food Ingredients, Inc., priority 2000, dated 2003).

System: hamsters
Conditions: feeding studies with hamsters; compared with a composite group of CLA-FFA isomers

CCCCCC/C=C/C=C\CCCCCCCC(=O)O [purified c-9, t-11 CLA-FFA, cis-9, trans-11-octadecadienoic acid]
biological activity: not so biologically active as a composite group of CLA-FFA isomers
